# According to the supplement of paper PMC8967900:
# What was measured:
# Assay in all cases: selective drug sensitivity score (sDSS, relative to normal bone marrow) (sDSS (score)); higher = more potent and effective on the cell line relative to normal bone marrow cells
# Settings in all cases: 72 h
# MOLT-16 = tested on: MOLT-16
# MOLT-14 = tested on: MOLT-14
# ALL-SIL = tested on: ALL-SIL
# CCRF-HSB2 = tested on: CCRF-HSB2
# COG-LL-355h = tested on: COG-LL-355h
# KARPAS-45 = tested on: KARPAS-45
# P12-ICHIKAWA = tested on: P12-ICHIKAWA
# MOLT-4 = tested on: MOLT-4
# HAL-01 = tested on: HAL-01
# KASUMI-9 = tested on: KASUMI-9
# NALL-1 = tested on: NALL-1
# P30-OHKUBO = tested on: P30-OHKUBO
# PF-382 = tested on: PF-382
# 697 = tested on: 697
# MN-60 = tested on: MN-60
# NALM-16 = tested on: NALM-16
# JURKAT = tested on: JURKAT
# COG-LL-402h = tested on: COG-LL-402h
# TMD5 = tested on: TMD5
# KOPN-8 = tested on: KOPN-8
# 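Also: ALL cell lines in 384-well plates, five doses spanning 10,000-fold, each plate scaled between vehicle and 100 µmol/L benzalkonium chloride controls, sDSS an adapted area-under-curve metric.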
Compound,selective drug sensitivity score (MOLT-16),selective drug sensitivity score (MOLT-14),selective drug sensitivity score (ALL-SIL),selective drug sensitivity score (CCRF-HSB2),selective drug sensitivity score (COG-LL-355h),selective drug sensitivity score (KARPAS-45),selective drug sensitivity score (P12-ICHIKAWA),selective drug sensitivity score (MOLT-4),selective drug sensitivity score (HAL-01),selective drug sensitivity score (KASUMI-9),selective drug sensitivity score (NALL-1),selective drug sensitivity score (P30-OHKUBO),selective drug sensitivity score (PF-382),selective drug sensitivity score 697,selective drug sensitivity score (MN-60),selective drug sensitivity score (NALM-16),selective drug sensitivity score (JURKAT),selective drug sensitivity score (COG-LL-402h),selective drug sensitivity score (TMD5),selective drug sensitivity score (KOPN-8)
CNC(=O)c1ccccc1Sc1ccc2c(/C=C/c3ccccn3)n[nH]c2c1 [Axitinib] (top concentration 10000 nM),13.1,8.56,20.1,11,-0.74,6.36,12.1,12.2,-0.94,8.36,5.56,12.2,6.96,14.7,-2.94,-2.34,5.06,5.86,6.76,6.06
Cc1c(N)nc([C@H](CC(N)=O)NC[C@H](N)C(N)=O)nc1C(=O)N[C@H](C(=O)N[C@H](C)[C@@H](O)[C@H](C)C(=O)N[C@H](C(=O)NCCc1nc(-c2nc(C(=O)NCCC[S+](C)C)cs2)cs1)[C@@H](C)O)[C@@H](O[C@@H]1O[C@@H](CO)[C@@H](O)[C@H](O)[C@@H]1O[C@H]1O[C@H](CO)[C@@H](O)[C@H](OC(N)=O)[C@@H]1O)c1c[nH]cn1 [Bleomycin] (top concentration 10000 nM),4.54,0.94,-1.36,-0.06,4.14,1.94,-0.56,2.24,8.44,6.24,-1.56,4.44,1.94,4.74,-1.86,-1.86,-0.96,2.84,7.34,7.34
CC(C)C[C@H](NC(=O)[C@H](Cc1ccccc1)NC(=O)c1cnccn1)B(O)O [Bortezomib] (top concentration 1000 nM),2.02,1.52,4.72,5.82,5.92,1.42,2.22,2.22,4.12,3.22,2.52,4.72,1.82,2.62,-3.38,2.32,1.72,1.32,2.32,3.42
CCC/C=C/C=C/C(=O)O[C@H]1/C(=C/C(=O)OC)C[C@H]2C[C@H]([C@@H](C)O)OC(=O)C[C@H](O)C[C@@H]3C[C@H](OC(C)=O)C(C)(C)[C@](O)(C[C@@H]4C/C(=C/C(=O)OC)C[C@H](/C=C/C(C)(C)[C@]1(O)O2)O4)O3 [Bryostatin_1] (top concentration 100 nM),-7.12,-7.12,-7.12,20.4,-7.12,-7.12,1.68,-7.12,0.08,25.1,-7.12,20.2,4.18,12,-7.12,-6.92,-0.02,-5.72,-7.12,26.9
CO[C@H]1CC[C@H](N2C(=O)CNc3ncc(-c4ccc(C(C)(C)O)nc4)nc32)CC1 [CC-223] (top concentration 10000 nM),4.12,0.62,1.32,2.62,1.12,2.22,1.92,-0.48,6.32,5.12,5.52,3.12,1.42,5.02,1.32,0.72,0.02,2.92,6.12,8.12
CN(C)c1cc2c(cc1Sc1nc3c(N)nccc3n1CCNCC(C)(C)C)OCO2 [CUDC-305] (top concentration 10000 nM),4.42,5.12,3.02,8.12,2.42,5.02,2.82,6.02,3.32,0.22,0.42,1.72,3.82,2.92,1.42,1.12,1.22,3.92,1.82,4.32
CO[C@H]1C(=O)[C@]2(C)[C@@H](OC)C[C@H]3OC[C@@]3(OC(C)=O)[C@H]2[C@H](OC(=O)c2ccccc2)[C@]2(O)C[C@H](OC(=O)[C@H](O)[C@@H](NC(=O)OC(C)(C)C)c3ccccc3)C(C)=C1C2(C)C [Cabazitaxel] (top concentration 1000 nM),26.7,22.7,19.3,21.1,2.58,18.9,3.08,18.4,11.7,18.7,11.4,20.3,10.9,23.7,-5.32,11.4,18.3,17.1,2.88,17.9
C=CC(=O)Nc1cc2c(Nc3ccc(F)c(Cl)c3)ncnc2cc1OCCCN1CCOCC1 [Canertinib] (top concentration 10000 nM),1.86,-0.04,5.16,6.36,5.96,-0.24,-1.54,-2.14,2.76,3.76,-0.94,2.26,-0.54,1.66,-4.14,-0.14,-1.14,4.86,4.96,4.36
CC(C)C[C@H](NC(=O)[C@H](CCc1ccccc1)NC(=O)CN1CCOCC1)C(=O)N[C@@H](Cc1ccccc1)C(=O)N[C@@H](CC(C)C)C(=O)[C@@]1(C)CO1 [Carfilzomib] (top concentration 1000 nM),1.36,1.16,1.66,3.86,5.06,0.66,1.26,0.86,-8.84,1.76,0.56,3.46,1.86,0.66,-7.34,-3.64,-4.04,2.86,0.16,1.46
O=C(c1ccc(F)c(F)c1Nc1ccc(I)cc1F)N1CC(O)([C@@H]2CCCCN2)C1 [Cobimetinib] (top concentration 1000 nM),-3.68,5.22,-2.98,-0.28,5.02,-3.68,-1.88,-3.68,0.32,-2.38,-1.88,-3.68,-3.28,-2.58,-3.68,-1.38,-3.68,-0.98,1.32,2.12
COc1c(OCCCN2CCOCC2)ccc2c1N=C(NC(=O)c1cnc(N)nc1)N1CCN=C21 [Copanlisib] (top concentration 1000 nM),7.68,-3.92,0.38,1.98,12.2,3.38,-0.42,4.48,12.1,5.98,-0.62,10.1,2.58,3.48,0.48,2.58,-3.62,8.88,-5.32,4.98
Cn1c(=O)n(-c2ccc(C(C)(C)C#N)cc2)c2c3cc(-c4cnc5ccccc5c4)ccc3ncc21 [Dactolisib] (top concentration 1000 nM),16.1,0.36,4.96,11.1,3.46,6.56,4.76,5.76,9.66,10.3,3.46,14.8,9.36,15.8,8.66,0.86,7.26,5.36,4.46,15.1
O=C(/C=C/c1cccnc1)NCCCCC1CCN(C(=O)c2ccccc2)CC1 [Daporinad] (top concentration 1000 nM),11.2,4.66,9.46,6.76,11,18.4,9.16,5.86,7.26,16.2,15.9,16,18.4,16.3,6.66,2.96,8.76,16.4,4.46,19.8
CC(=O)N(O)CCCCCNC(=O)CCC(=O)N(O)CCCCCNC(=O)CCC(=O)N(O)CCCCCN [Deferoxamine] (top concentration 10000 nM),6.26,8.76,3.56,4.86,1.46,5.16,3.66,3.56,8.46,1.16,-0.74,0.76,4.66,6.26,5.16,4.66,2.26,5.76,-0.24,10.4
Cc1cc(Nc2cc(N3CCN(C)CC3)nc(/C=C/c3ccccc3)n2)n[nH]1 [ENMD-2076] (top concentration 10000 nM),7.04,6.64,8.94,9.74,4.04,5.14,8.24,5.74,5.54,9.24,5.84,8.94,1.34,9.54,-1.46,-0.06,3.64,4.24,-0.26,8.34
Cc1cnc(Nc2ccc(OCCN3CCCC3)cc2)nc1Nc1cccc(S(=O)(=O)NC(C)(C)C)c1 [Fedratinib] (top concentration 10000 nM),-1.06,-0.06,0.84,0.54,3.84,0.04,-2.56,-2.86,-1.96,-0.86,-1.56,-2.16,-3.06,-0.76,-4.06,-2.16,-2.06,1.24,-2.26,-0.76
